According to ChEMBL document CHEMBL1201862, “PubChem BioAssay data set” (2004):
Structures can show the parent of a compound that is named as a salt. The source made the active and inactive calls.

Experiments:
[1] = inhibitors of firefly luciferase expression or activity, dose response, H4 neuroglioma cells, luminescence (AID 1990); type: functional, cell-based
[2] = molecular target: T1, DNA repair protein RAD52 homolog (Homo sapiens, UniProt P43351); type: functional, biochemical
T1 sequence (P43351 whole entry): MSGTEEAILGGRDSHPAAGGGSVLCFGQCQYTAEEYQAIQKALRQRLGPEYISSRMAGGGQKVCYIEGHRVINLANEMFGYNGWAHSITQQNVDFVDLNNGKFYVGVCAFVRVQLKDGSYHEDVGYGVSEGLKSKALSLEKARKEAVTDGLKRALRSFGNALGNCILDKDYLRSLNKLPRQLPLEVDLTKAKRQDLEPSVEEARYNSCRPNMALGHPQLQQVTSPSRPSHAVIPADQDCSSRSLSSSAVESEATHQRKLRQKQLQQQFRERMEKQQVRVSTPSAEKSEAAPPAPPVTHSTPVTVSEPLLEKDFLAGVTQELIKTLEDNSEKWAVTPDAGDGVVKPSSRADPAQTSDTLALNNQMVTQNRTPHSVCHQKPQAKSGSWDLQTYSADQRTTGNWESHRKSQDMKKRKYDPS

[3] = Luminescence Cell-Based Dose Response HTS to Identify Inhibitors of 5'UTR Stem-Loop Driven Prion Protein mRNA Translation in H4 Neuroglioblastoma Cells. [Related pubchem assays: 1827 (Project Summary), 1813 (Primary HTS)]; type: functional
[4] = inhibitors of SNCA 5'UTR-driven reporter translation, confirmation, H4 neuroglioma cells, luminescence (AID 1988); type: functional, cell-based
[5] = molecular target: T2, Adenosylmethionine-8-amino-7-oxononanoate aminotransferase (Mycobacterium tuberculosis, UniProt P9WQ81); experiment: Mycobacterium tuberculosis BioA enzyme inhibitor Measured in Biochemical System Using Plate Reader - 2163-02_Inhibitor_Dose_CherryPick_Activity.; type: functional, Mycobacterium tuberculosis UT205
T2 sequence (P9WQ81 whole entry): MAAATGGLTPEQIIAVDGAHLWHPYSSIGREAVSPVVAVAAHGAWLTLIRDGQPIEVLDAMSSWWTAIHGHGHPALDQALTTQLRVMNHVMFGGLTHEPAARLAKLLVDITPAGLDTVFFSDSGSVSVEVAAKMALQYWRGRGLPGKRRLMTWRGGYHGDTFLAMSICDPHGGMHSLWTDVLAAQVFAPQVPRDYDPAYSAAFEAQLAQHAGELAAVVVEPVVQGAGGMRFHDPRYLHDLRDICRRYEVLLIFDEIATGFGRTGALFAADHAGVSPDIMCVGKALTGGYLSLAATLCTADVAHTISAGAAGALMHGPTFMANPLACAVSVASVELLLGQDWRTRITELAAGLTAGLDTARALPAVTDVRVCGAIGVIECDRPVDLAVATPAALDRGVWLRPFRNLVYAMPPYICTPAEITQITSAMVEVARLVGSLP

[6] = molecular target: 26S proteasome non-ATPase regulatory subunit 14 (Homo sapiens, UniProt O00487); experiment: inhibition of proteasome subunit RPN11 – biochemical, fluorescence polarization, uHTS hits, confirmation (AID 602368); type: functional
[7] = molecular target: 72 kDa type IV collagenase (Homo sapiens, UniProt P08253); experiment: Dose Response validation of uHTS RPN11 inhibitor hits using a MMP-2 Fluorescence assay.; type: functional
[8] = molecular target: T3, Small ubiquitin-related modifier 1 (Homo sapiens, UniProt P63165); experiment: inhibitors of SUMO1 peptide binding, dose response, biochemical, fluorescence polarization, uHTS hits (AID 624382); type: functional; details: read-out: IC50_Mean
[9] = molecular target: T3, Small ubiquitin-related modifier 1; experiment: inhibitors of SUMO1 partner interactions, dose response, biochemical, FRET (AID 624383); type: functional; details: read-out: IC50_Mean
Prothrombin = Prothrombin (Bos taurus, UniProt P00735); experiment: thrombin inhibition, dose response, biochemical, fluorescence polarization, uHTS hits (AID 602369); type: functional
[10] = molecular target: T4, Trace amine-associated receptor 1 (Homo sapiens, UniProt Q96RJ0); experiment: Counterscreen for agonists of the human trace amine associated receptor 1 (hTAAR1): Fluorescence-based cell-based high throughput dose response assay to identify hTAAR1 agonist that also desensitize TAAR1 receptor response.; type: functional
T4 sequence (Q96RJ0 whole entry): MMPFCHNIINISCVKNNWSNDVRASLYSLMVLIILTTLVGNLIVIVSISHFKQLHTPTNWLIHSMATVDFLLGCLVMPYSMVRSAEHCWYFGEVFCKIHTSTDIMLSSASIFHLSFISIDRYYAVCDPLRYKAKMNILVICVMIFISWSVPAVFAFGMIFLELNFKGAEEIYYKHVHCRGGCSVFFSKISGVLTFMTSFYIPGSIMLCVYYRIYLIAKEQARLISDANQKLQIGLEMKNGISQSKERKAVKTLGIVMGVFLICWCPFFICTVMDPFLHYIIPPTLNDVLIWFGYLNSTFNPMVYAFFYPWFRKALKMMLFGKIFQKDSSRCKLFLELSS

cells [11] = type: functional, cell-based
[12] = molecular target: T4, Trace amine-associated receptor 1; experiment: Fluorescence-based cell-based high throughput dose response assay to identify agonists of the human trace amine associated receptor 1 (TAAR1).; type: functional
cells [13] = type: functional, cell-based; remark: listed apart in the source
[14] = CRF-BP/CRF-R2 complex antagonists, dose response, cell-based, uHTS hits, 384-well (AID 651639); type: functional, Homo sapiens; details: read-out: IC50_Mean
Streptokinase A = molecular target: T5, Streptokinase A (Streptococcus pyogenes serotype M1, UniProt P10520); experiment: S. pyogenes streptokinase expression inhibitors, potency, dose response, plasminogen activation absorbance, OD405 (AID 1914); type: functional, Streptococcus pyogenes M1 GAS;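 note: secreted streptokinase activity via plasminogen activation per viability signal from cell pellet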
T5 sequence (P10520 whole entry): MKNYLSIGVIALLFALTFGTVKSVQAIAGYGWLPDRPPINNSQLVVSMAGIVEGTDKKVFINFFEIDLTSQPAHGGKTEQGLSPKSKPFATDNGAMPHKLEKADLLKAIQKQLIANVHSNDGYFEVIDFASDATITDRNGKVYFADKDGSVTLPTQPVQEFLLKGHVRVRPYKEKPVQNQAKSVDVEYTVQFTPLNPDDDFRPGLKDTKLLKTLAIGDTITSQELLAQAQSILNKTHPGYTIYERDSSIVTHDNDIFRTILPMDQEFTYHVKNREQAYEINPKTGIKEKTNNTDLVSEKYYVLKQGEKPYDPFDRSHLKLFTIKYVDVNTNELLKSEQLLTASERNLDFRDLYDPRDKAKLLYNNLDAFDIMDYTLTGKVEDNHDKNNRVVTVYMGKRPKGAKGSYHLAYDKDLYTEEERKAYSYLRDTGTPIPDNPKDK

[15] = molecular target: T6, Corticotropin-releasing factor receptor 2/Corticotropin-releasing factor-binding protein (Homo sapiens, UniProt P24387+Q13324); experiment: activators of CRF receptor 2 with binding protein – uHTS hits, confirmation (AID 602473); type: functional; details: read-out: EC50_Mean
T6 sequence (Q13324 whole entry): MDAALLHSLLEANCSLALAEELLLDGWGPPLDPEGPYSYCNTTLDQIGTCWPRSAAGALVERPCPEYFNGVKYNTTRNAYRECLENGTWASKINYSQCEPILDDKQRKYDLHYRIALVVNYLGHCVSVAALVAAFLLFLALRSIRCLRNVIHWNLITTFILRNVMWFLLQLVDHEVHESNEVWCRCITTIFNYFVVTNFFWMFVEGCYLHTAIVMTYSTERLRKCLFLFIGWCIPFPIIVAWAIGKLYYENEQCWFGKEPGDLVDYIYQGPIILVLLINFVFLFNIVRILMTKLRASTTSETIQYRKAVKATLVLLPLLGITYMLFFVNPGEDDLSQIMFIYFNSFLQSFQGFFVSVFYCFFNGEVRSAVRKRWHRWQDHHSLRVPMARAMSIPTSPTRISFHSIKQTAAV
T6 sequence (P24387 whole entry): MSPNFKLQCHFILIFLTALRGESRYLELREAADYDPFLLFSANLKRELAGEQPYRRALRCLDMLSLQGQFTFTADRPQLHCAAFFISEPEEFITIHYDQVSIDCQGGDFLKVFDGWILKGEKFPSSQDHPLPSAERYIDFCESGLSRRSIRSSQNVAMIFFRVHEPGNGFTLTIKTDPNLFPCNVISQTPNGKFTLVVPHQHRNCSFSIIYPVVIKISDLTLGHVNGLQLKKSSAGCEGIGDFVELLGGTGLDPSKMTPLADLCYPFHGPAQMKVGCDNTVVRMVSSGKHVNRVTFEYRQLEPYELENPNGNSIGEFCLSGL

[16] = tested on: Streptococcus sp. 'group A'; experiment: growth inhibition of control SK(-) GAS strain, dose response, counter-screen for streptokinase expression inhibitor project, luminescence, kanamycin, BacTiterGlo, confirmation (AID 1900); type: functional, organism-based
[17] = molecular target: T6, Corticotropin-releasing factor receptor 2/Corticotropin-releasing factor-binding protein; experiment: Dose Response confirmation of uHTS hits for small molecule antagonists of the CRF-binding protein and CRF-R2 receptor complex.; type: functional; details: read-out: IC50_Mean
Streptococcus = experiment: Group A Streptococcus viability loss, dose response, counter-screen for streptokinase expression inhibitor project, luminescence, BacTiterGlo (AID 1915); type: functional, organism-based;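 note: potency for reduction of bacterial viability or growth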
[18] = molecular target: T7, Fructose-bisphosphate aldolase (Mycobacterium tuberculosis, UniProt P9WQA3); experiment: Fluorescence-based biochemical high throughput dose response assay for inhibitors of the fructose-bisphosphate aldolase (FBA) of M. tuberculosis.; type: functional
T7 sequence (P9WQA3 whole entry): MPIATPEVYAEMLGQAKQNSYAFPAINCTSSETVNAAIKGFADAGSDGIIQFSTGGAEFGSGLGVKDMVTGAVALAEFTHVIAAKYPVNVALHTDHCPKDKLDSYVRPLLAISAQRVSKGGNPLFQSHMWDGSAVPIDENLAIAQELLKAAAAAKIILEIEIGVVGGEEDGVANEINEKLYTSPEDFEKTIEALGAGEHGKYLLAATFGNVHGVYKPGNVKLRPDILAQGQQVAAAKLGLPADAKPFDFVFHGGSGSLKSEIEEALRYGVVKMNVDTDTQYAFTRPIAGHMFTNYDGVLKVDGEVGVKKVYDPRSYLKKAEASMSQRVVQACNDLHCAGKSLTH

H9c2 = experiment: cells; type: functional, cell-based; details: Rattus norvegicus, H9c2, Myocardium;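 note: confirmatory concentration-response retest of ultra-high-throughput screening hits for modulation of myocardial damage; cell death induced by hydrogen peroxide oxidative stress; compound pretreatment for 60 min then peroxide exposure for 2 h; potency is for protecting the cells against peroxide damage rather than for killing them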

T3 sequence (P63165 whole entry): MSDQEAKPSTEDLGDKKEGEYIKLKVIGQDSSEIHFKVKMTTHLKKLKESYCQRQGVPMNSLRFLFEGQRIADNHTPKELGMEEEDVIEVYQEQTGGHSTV
Sequence of 72 kDa type IV collagenase (P08253 whole entry): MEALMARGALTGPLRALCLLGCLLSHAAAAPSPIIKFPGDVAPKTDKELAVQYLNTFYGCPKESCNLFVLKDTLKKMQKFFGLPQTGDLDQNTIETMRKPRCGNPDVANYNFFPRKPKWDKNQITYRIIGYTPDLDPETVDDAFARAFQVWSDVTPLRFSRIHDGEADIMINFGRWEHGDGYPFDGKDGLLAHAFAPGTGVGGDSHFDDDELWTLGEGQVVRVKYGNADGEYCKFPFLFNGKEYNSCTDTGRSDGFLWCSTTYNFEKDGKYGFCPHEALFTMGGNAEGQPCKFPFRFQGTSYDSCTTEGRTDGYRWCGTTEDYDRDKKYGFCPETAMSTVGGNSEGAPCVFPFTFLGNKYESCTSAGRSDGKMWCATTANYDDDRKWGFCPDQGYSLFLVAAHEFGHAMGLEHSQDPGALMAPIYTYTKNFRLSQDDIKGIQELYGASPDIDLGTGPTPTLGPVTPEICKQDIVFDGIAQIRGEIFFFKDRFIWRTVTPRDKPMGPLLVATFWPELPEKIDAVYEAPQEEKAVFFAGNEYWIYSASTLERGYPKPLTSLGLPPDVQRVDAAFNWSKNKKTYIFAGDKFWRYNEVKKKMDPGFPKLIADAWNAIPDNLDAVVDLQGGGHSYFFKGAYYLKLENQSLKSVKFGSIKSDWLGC
Sequence of 26S proteasome non-ATPase regulatory subunit 14 (O00487 whole entry): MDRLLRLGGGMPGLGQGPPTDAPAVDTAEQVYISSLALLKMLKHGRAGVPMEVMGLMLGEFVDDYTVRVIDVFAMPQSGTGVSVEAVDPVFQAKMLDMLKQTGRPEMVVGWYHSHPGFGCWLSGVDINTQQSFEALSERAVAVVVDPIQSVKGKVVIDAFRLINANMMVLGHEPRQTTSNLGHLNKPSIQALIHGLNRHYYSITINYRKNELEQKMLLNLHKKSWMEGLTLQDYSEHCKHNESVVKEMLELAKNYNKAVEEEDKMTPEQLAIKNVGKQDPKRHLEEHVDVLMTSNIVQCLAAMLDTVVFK

For `CN1CCN(C2Cc3cc(Cl)ccc3Sc3cc(F)ccc32)CC1` (stereo not given), the EC50 [1] was > 120 µM (not active), the AC50 [2] was 18.1 µM (active) and the EC50 [3] was > 120 µM (not active). For the same molecule, the EC50 [4] was 8.62 µM (active).
In the case of `COc1ccc(C2c3c(oc4ccc(Cl)cc4c3=O)C(=O)N2CCN2CCOCC2)cc1` (stereo not given), the AC50 [5] is reported as 3.7 µM (active).
With `CC(=O)c1ccc(NC(=O)CN2CCN(c3ccccc3)CC2)cc1` the AC50 [5] was 8.6 µM (active).
In the case of `O=C(c1ccc(S(=O)(=O)Nc2ccccc2F)cc1)N1CCN(c2ccccc2O)CC1`, the AC50 [5] is reported as 3.62 µM (active).
In the case of `CCC(CO)Oc1cc(NC(=O)c2ccc(N)cc2)c2ncn(C(C)C)c2c1` (stereo not given), the IC50 [6] is reported as 19.6 µM (active), the IC50 [7] is reported as 64.6 µM (active) and the IC50 [8] is reported as > 66.6 µM (inactive). For the same molecule, the IC50 [9] was 9.23 µM (active) and the IC50 (Prothrombin) was > 100 µM (inactive).
For `CCn1c(C)c(C(C)=O)c(NCc2ccccc2)nc1=S`, the AC50 [2] was 11 µM (active).
With `O=S(=O)(NCCc1ccccc1)c1ccc(F)cc1` the IC50 [10] was 4.22 µM (active), the IC50 (cells [11]) was > 29.9 µM (inactive) and the EC50 [12] was 1.37 µM (active). For the same molecule, the EC50 (cells [13]) was > 29.9 µM (inactive).
With `CCc1ccc(N2CN(CCc3ccccc3)CN=C2S)cc1` the IC50 [10] was 9.18 µM (active), the IC50 (cells [11]) was > 29.9 µM (inactive) and the EC50 [12] was 2.26 µM (active). For the same molecule, the EC50 (cells [13]) was > 29.9 µM (inactive).
With `Cc1ccccc1-c1cc2nc(-c3ccc([N+](=O)[O-])cc3)cc(O)n2n1` the IC50 [14] was 3.21 µM (active), the EC50 (Streptokinase A) was > 150 µM (not active) and the EC50 [15] was > 53 µM (inactive). For the same molecule, the EC50 [16] was 9.23 µM (active), the IC50 [17] was 4.74 µM (active) and the EC50 (Streptococcus) was 60.1 µM (active).
In the case of `CC1=CC(C)(C)N2C(=O)C3(C(C#N)=C(N)Oc4cc(O)ccc43)c3c(C)c(C)cc1c32` (stereo not given), the IC50 [14] is reported as 16.5 µM (active), the EC50 [15] is reported as > 53 µM (inactive) and the IC50 [17] is reported as 29.4 µM (active).
For `CC1(C)CC(=O)C2=C(C1)N(CCN1CCOCC1)C1=C(C(=O)CC(C)(C)C1)C2c1ccc(Cl)cc1`, the IC50 [18] was 2.33 µM (active) and the IC50 (H9c2) was > 79 µM (inactive).
With `Cc1nn(S(=O)(=O)c2cccs2)c(C)c1Sc1ccc([N+](=O)[O-])cc1` the IC50 [14] was 12.8 µM (active), the EC50 [15] was > 53 µM (inactive) and the IC50 [17] was < 0.368 µM (active).
With `CNC(=O)C[C@H]1CC[C@@H]2[C@H](COC[C@@H](O)CN2C(=O)Nc2ccc3c(c2)OCO3)O1` the AC50 [5] was 10.4 µM (active).
In the case of `CC1(C)Oc2cc3oc(C(=O)O)cc(=O)c3cc2-c2ccccc21`, the IC50 [18] is reported as > 0.37 µM (active).
In the case of `O=C(Cc1nnc(O)nc1O)N/N=C/c1ccccc1`, the IC50 [10] is reported as > 29.9 µM (inactive), the IC50 (cells [11]) is reported as > 29.9 µM (inactive) and the EC50 [12] is reported as > 29.9 µM (inactive). For the same molecule, the EC50 (cells [13]) was > 29.9 µM (inactive).
With `c1ccc2c(c1)CCCC2C1=NCCN1` (stereo not given) [TETRAHYDROZOLINE HYDROCHLORIDE] the IC50 [10] was 0.157 µM (active), the IC50 (cells [11]) was > 29.9 µM (inactive) and the EC50 [12] was 0.154 µM (active). The EC50 (cells [13]) was > 29.9 µM (inactive).
